Data reported in ChEMBL document CHEMBL1201862, “PubChem BioAssay data set” (2004).
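In this assay, cells in 96-well plates receive the compound at five concentrations for 48 hours. Endpoints are linearly interpolated between the surrounding concentrations. At the GI50, growth is halved.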 Calls of active or inactive are those of the source. No stated cut-off is given here; in the data, active = GI50 up to about 1.1 µM and inactive = higher.

Columns and labels:
Assay in all cases: NCI anticancer screen, dose series, 48 h
[1] = test system: HCT-15
[2] = test system: SF-268
[3] = test system: HOP-62
[4] = test system: SK-OV-3
[5] = test system: NCI/ADR-RES
[6] = test system: U-251
[7] = test system: HT-29
[8] = test system: SR
[9] = test system: SW-620
[10] = test system: OVCAR-8
[11] = test system: SK-MEL-5
[12] = test system: SF-539
[13] = test system: EKVX
[14] = test system: T47D
[15] = test system: HCC 2998
[16] = test system: Hs-578T
[17] = test system: OVCAR-3
[18] = test system: MDA-MB-435
[19] = test system: SF-295
[20] = test system: MCF7

SMILES | GI50 [1] [µM] | GI50 [2] | GI50 [3] | GI50 [4] | GI50 [5] | GI50 [6] | GI50 [7] | GI50 [8] | GI50 [9] | GI50 [10] | GI50 [11] | GI50 [12] | GI50 [13] | GI50 [14] | GI50 [15] | GI50 [16] | GI50 [17] | GI50 [18] | GI50 [19] | GI50 [20]
COC(=O)c1c(O)ccc2c1c1c(n2Cc2ccccc2)C(=O)c2ccccc2C1=O | 12.6 | 14.8 µM (inactive) | 23.6 µM (inactive) | 16.1 µM (inactive) | 12.6 µM (inactive) | 13.9 µM (inactive) | 9.23 µM (inactive) | 15.6 µM (inactive) | 19.2 µM (inactive) | 12.2 µM (inactive) | 16.1 µM (inactive) | 15.6 µM (inactive) | 20.6 µM (inactive) | 12.9 µM (inactive) | 5.01 µM (inactive) | 18.5 µM (inactive) | 16.7 µM (inactive) | 13 µM (inactive) | 19.4 µM (inactive) | 12.1 µM (inactive)
O=C1NC(N2CCOCC2)=N/C1=C\c1cccs1 | > 100 | > 100 µM (inactive) | > 100 µM (inactive) | > 100 µM (inactive) | > 100 µM (inactive) | > 100 µM (inactive) | > 100 µM (inactive) | > 100 µM (inactive) | > 100 µM (inactive) | > 100 µM (inactive) | > 100 µM (inactive) | > 100 µM (inactive) | > 100 µM (inactive) | > 100 µM (inactive) | 4.65 µM (inactive) | > 100 µM (inactive) | > 100 µM (inactive) | > 100 µM (inactive) | > 100 µM (inactive) | > 100 µM (inactive)
COc1ccc2c(c1)CCN1CCCc3ccc(OC)cc3C21 (stereo not given) | 54.8 | 82.6 µM (inactive) | 67.9 µM (inactive) | 77.4 µM (inactive) | 42.9 µM (inactive) | 58.9 µM (inactive) | 31.7 µM (inactive) | 41.5 µM (inactive) | 76.7 µM (inactive) | > 100 µM (inactive) | 39.6 µM (inactive) | 50.4 µM (inactive) | > 100 µM (inactive) | 50.6 µM (inactive) | 37.9 µM (inactive) | 48.1 µM (inactive) | 92 µM (inactive) | 36.4 µM (inactive) | 24.6 µM (inactive) | 31.3 µM (inactive)
C=CCCC1(CC(Sc2ccccc2)P(=O)(c2ccccc2)c2ccccc2)OCCO1 (stereo not given) | > 10 | > 10 µM (inactive) | > 10 µM (inactive) | > 10 µM (inactive) | > 10 µM (inactive) | > 10 µM (inactive) | > 10 µM (inactive) | > 10 µM (inactive) | > 10 µM (inactive) | > 10 µM (inactive) | > 10 µM (inactive) | > 10 µM (inactive) | > 10 µM (inactive) | > 10 µM (inactive) | > 10 µM (inactive) | > 10 µM (inactive) | > 10 µM (inactive) | > 10 µM (inactive) | > 10 µM (inactive) | > 10 µM (inactive)
C/C=C(/C)C(=O)O[C@H]1[C@H](O)CC(c2ccc3c(c2O)C(=O)C2=C(O)C4(OC)C(=O)C(C(N)=O)=C(O)[C@H](CC(=O)c5ccccc5O)C4CC2[C@@]3(C)OC)O[C@@H]1C (stereo not given in full) | 0.00507 | 0.0057 µM (active) | 0.00331 µM (active) | 0.00446 µM (active) | 8.43 µM (inactive) | 0.00256 µM (active) | 0.00246 µM (active) | 0.00426 µM (active) | 0.00408 µM (active) | 0.00475 µM (active) | 0.001 µM (active) | 0.00611 µM (active) | 0.0396 µM (active) | 0.0113 µM (active) | 0.0326 µM (active) | 0.0041 µM (active) | 0.00454 µM (active) | 0.0187 µM (active) | 0.017 µM (active) | 0.00363 µM (active)
CCCCCCOc1ccc(C(=O)NO)cc1 | 1.61 | 5.64 µM (inactive) | 11.8 µM (inactive) | 10.5 µM (inactive) | 3.08 µM (inactive) | 10.4 µM (inactive) | 7.57 µM (inactive) | 1.19 µM (inactive) | 5.02 µM (inactive) | 5.08 µM (inactive) | 15.7 µM (inactive) | 11.3 µM (inactive) | 15 µM (inactive) | 5.83 µM (inactive) | 9.25 µM (inactive) | 19.6 µM (inactive) | 6.03 µM (inactive) | 9.68 µM (inactive) | 8.26 µM (inactive) | 25.8 µM (inactive)
CCn1c(=O)c2c3cc(O)ccc3oc2c2ccc(O)cc21 | 31 | 27.5 µM (inactive) | 28.8 µM (inactive) | 43.6 µM (inactive) | 37.8 µM (inactive) | 22.9 µM (inactive) | 25.2 µM (inactive) | 18.2 µM (inactive) | 31.3 µM (inactive) | 36.7 µM (inactive) | 17 µM (inactive) | 16.7 µM (inactive) | 24.7 µM (inactive) | 12.6 µM (inactive) | 19.3 µM (inactive) | 5.46 µM (inactive) | 29.9 µM (inactive) | 27 µM (inactive) | 25 µM (inactive) | 28.6 µM (inactive)
C=C(CCC(=O)N(CCc1c[nH]c2ccccc12)C(=O)c1ccccc1CSCC)C(=O)OC | 26.5 | > 77.3 µM (inactive) | > 69.2 µM (inactive) | > 71.3 µM (inactive) | 27.3 µM (inactive) | 10.3 µM (inactive) | 19.5 µM (inactive) | > 100 µM (inactive) | 49.9 µM (inactive) | 48.4 µM (inactive) | 23.4 µM (inactive) | > 88.5 µM (inactive) | 48.2 µM (inactive) | 21.9 µM (inactive) | 43.7 µM (inactive) | 44.5 µM (inactive) | > 39.5 µM (inactive) | 22 µM (inactive) | 24.7 µM (inactive) | 19.9 µM (inactive)
O=[N+]([O-])c1c(F)c(F)c2c(c1F)Nc1ccccc1S2 | 4.83 | 2.49 µM (inactive) | 12.6 µM (inactive) | 18.2 µM (inactive) | 25.9 µM (inactive) | 2.05 µM (inactive) | 2.07 µM (inactive) | 2.62 µM (inactive) | 2.77 µM (inactive) | 1.96 µM (inactive) | 11.6 µM (inactive) | 20.6 µM (inactive) | 6.44 µM (inactive) | 3.03 µM (inactive) | 2.76 µM (inactive) | 7.1 µM (inactive) | 2.03 µM (inactive) | 4.81 µM (inactive) | 17.3 µM (inactive) | 5 µM (inactive)
